The values that follow come from publication PMC5559315 (Biochimie, 2017).

“Also recorded” adds a separate entry of the source. Like-named read-outs stand apart in the source and are kept apart here. A value given as a limit tells only on which side of the number the result lay.

Assay [1] concerns the target β H-NOX/PAS subunit of Ms sGC. The following applies: read-out: KD(CO); β H-NOX/PAS subunit alone; ref [27]; cited from earlier work.
The next assay addresses Ms sGC NT2. The following applies: read-out: KD(CO); Ms sGC NT2, lacking 48 residues from α-subunit N-terminus and the catalytic domains; ref [27]; cited from earlier work.
Assay [2] deals with Vc H-NOX. The note with it: ref [9], cited from earlier work.
A further assay deals with Ns H-NOX. The note with it: cited from earlier work; for Kd / koff / kon: ref [10],[18].
In a further assay the target is Tt H-NOX. The following applies: ref [11], cited from earlier work; for Kd / koff / kon: NO: 6c NO-heme-His complex.
Assay [3] addresses full length sGC from Manduca sexta (Ms sGC). The note with it: read-out: KD(CO), ref [27]; cited from earlier work.
Assay [4] has as its target soluble guanylyl cyclase (sGC). The following applies: cited from earlier work; for Kd / koff / kon: ref [18].
The target in a further assay is Cb H-NOX. The note with it: ref [11], cited from earlier work.
The target in another assay is ferrous So H-NOX. Nature of the assay: Stopped-flow binding kinetics of gaseous ligands to ferrous So H-NOX. On the set-up: species or system Shewanella oneidensis. The following applies: for kon: ferrous So H-NOX, room temperature, anaerobic, CO: 6c CO-heme-His complex.
Assay [5] deals with Vc H-NOX. Nature of the assay: Gaseous ligand binding kinetics of Vc H-NOX. Details: species or system Vibrio cholera. The note with it: reacted with 600 µM O2; data not shown.
Where [6] appears, read: NO: 6c NO-heme-His complex, O2: high pressure cell.
[7] abbreviates: calculated as koff/kon, NO: 6c NO-heme-His complex.
Setting [8] is: O2, estimated based on the sliding scale rule.
Setting [9] is: Intermediate NO-heme--NO(−-His), estimated based on computer simulations.

In general, koff refers to the first-order rate constant of dissociation. A word on the kon: it is the second-order rate constant of association. Turning to `[C-]#[O+]` [CO, carbon monoxide], the Kd in assay [1] is 0.2 µM; at Ms sGC NT2 it was 50 to 100 µM; at Vc H-NOX [2] (NO: 6c NO-heme-His complex), 0.77 µM; at Ns H-NOX (setting [6]), 1.4 µM; on Tt H-NOX, 160 nM; in [3], 50 to 100 µM. Besides, the Kd in assay [4] (NO: 6c NO-heme-His complex) is 260 µM; at Cb H-NOX (NO: 6c NO-heme-His complex), 670 nM; at ferrous So H-NOX (setting [7]), 0.85 µM. The koff in the assay on Vc H-NOX [2] (NO: 6c NO-heme-His complex) was 0.85 s⁻¹; in the assay with Ns H-NOX (NO: 6c NO-heme-His complex), 3.6 s⁻¹; with Tt H-NOX it was 0.5 s⁻¹; in assay [4] (NO: 6c NO-heme-His complex), 10.7 s⁻¹; in the assay with Cb H-NOX (NO: 6c NO-heme-His complex), 1.0 s⁻¹. For the same molecule, the kon is 1.1e+06 M⁻¹ s⁻¹ in the assay on Vc H-NOX [2] (NO: 6c NO-heme-His complex); 3e+06 M⁻¹ s⁻¹ with Ns H-NOX (NO: 6c NO-heme-His complex); 3.3e+06 M⁻¹ s⁻¹ with Tt H-NOX; 40000 M⁻¹ s⁻¹ in assay [4] (NO: 6c NO-heme-His complex); 1.5e+06 M⁻¹ s⁻¹ with Cb H-NOX (NO: 6c NO-heme-His complex); 820000 M⁻¹ s⁻¹ in the assay with ferrous So H-NOX (NO: 6c NO-heme-His complex).

Turning to `O=O` [O2], the autoxidation rate was ~ 4 × 10^−3 s^−1 with Vc H-NOX [5], 1.4e-05 s⁻¹ in the assay with Ns H-NOX (ref [10]) and 0.02 s⁻¹ with Cb H-NOX (reacted with 600 µM O2). The Kd on Vc H-NOX [2] (setting [8]) is ~1300 µM; at Ns H-NOX (setting [6]), 13000 µM; at Tt H-NOX, 44 nM; on Cb H-NOX (NO: 6c NO-heme-His complex), 53000 nM; on ferrous So H-NOX (setting [8]), ~4500 µM. Further, the koff in the assay on Tt H-NOX was 1.9 s⁻¹. Besides, the kon with Tt H-NOX was 4.3e+07 M⁻¹ s⁻¹. Further, in the assay on Tt H-NOX, the “autoxidation of oxyferrous heme” value is “no autoxidation is observed”. Also, in the assay with ferrous So H-NOX (O2-saturated buffer, final [O2] = 600 µM, no oxyferrous intermediate), the O2 binding result is given as “does not bind O2”.

For the molecule nitric oxide [NO], the koff is 10^−3 – 10^−2 s^−1 in the assay on Vc H-NOX [2] (5c heme-NO complex); 4.5 × 10^3 ^‡ s^−1 with Vc H-NOX [2] (setting [9]); 0.3 s⁻¹ with Vc H-NOX [2] (NO: 6c NO-heme-His complex); 1.9 s⁻¹ in the assay on Ns H-NOX (2nd 6c NO-heme-His complex); 0.05 s⁻¹ with Ns H-NOX (NO: 6c NO-heme-His complex); 0.0034 s⁻¹ with Tt H-NOX. Also, the koff was 10^−4 – 10^−3 s^−1 in assay [4] (5c heme-NO complex); 26 s⁻¹ in assay [4] (Intermediate NO-heme--NO(−-His)); 27 s⁻¹ in [4] (NO: 6c NO-heme-His complex); 0.0011 s⁻¹ in the assay with Cb H-NOX (5c heme-NO complex); 0.012 s⁻¹ in the assay on Cb H-NOX (NO: 6c NO-heme-His complex). Moreover, the kon was 2.5 × 10^7 ^‡ M^−1s^−1 with Vc H-NOX [2] (setting [9]); 1.1e+09 M⁻¹ s⁻¹ with Vc H-NOX [2] (NO: 6c NO-heme-His complex); 2.4e+06 M⁻¹ s⁻¹ in the assay on Ns H-NOX (2nd 6c NO-heme-His complex); 3e+08 M⁻¹ s⁻¹ in the assay with Ns H-NOX (NO: 6c NO-heme-His complex); 1.5e+08 M⁻¹ s⁻¹ in the assay with Tt H-NOX; 1.4e+08 M⁻¹ s⁻¹ in assay [4] (NO: 6c NO-heme-His complex). Further, the kon in the assay on Cb H-NOX (setting [9]) is 1.8 × 10^7 ^‡ M^−1s^−1; in the assay on Cb H-NOX (NO: 6c NO-heme-His complex) it was 1.5e+08 M⁻¹ s⁻¹; in the assay on ferrous So H-NOX (NO: 6c NO-heme-His complex), 1.5e+09 M⁻¹ s⁻¹. Moreover, the Kd at Vc H-NOX [2] (NO: 6c NO-heme-His complex) was 0.00027 µM; on Ns H-NOX (2nd 6c NO-heme-His complex), 0.8 µM; on Ns H-NOX (setting [6]), 0.00017 µM; at Tt H-NOX it was 0.023 nM; in [4] (NO: 6c NO-heme-His complex), 0.054 µM; at Cb H-NOX (NO: 6c NO-heme-His complex), 0.08 nM. The Kd at Cb H-NOX (read-out: KD(NO)(apparent), 5c heme-NO complex) is 0.0073 nM; at ferrous So H-NOX (setting [7]), 0.00015 µM. For the same molecule, in assay [4] (ref [23]), the “conversion rate from 6c NO complex to 5c NO-heme complex” value was 8.5 s⁻¹. In addition, in the assay on ferrous So H-NOX (5c heme-NO complex, CO displacement method), the “koff,5c(NO)” value was determined as 0.0013 s⁻¹. In the assay with ferrous So H-NOX (Intermediate NO-heme--NO(−-His), y-intercept of secondary plot), the “koff, dissociation rate of NO from the quaternary intermediate” value is reported as “very small; also recorded: small”. Further, the “formation rate of the 5c heme-NO complex (D → E)” value in the assay with ferrous So H-NOX (not measured directly, significantly faster than kobs at 30 µM NO) was > 600 s⁻¹.
